Source: patent publication US6355799B1, “Substituted benzene compounds, process for their preparation, and herbicidal and defoliant compositions containing them” (ISK Americas Incorporated, priority 1997, dated 2002)

Columns and labels:
Format in all cases: in vivo
[1] = test system: redroot pigweed (Amaranthus retroflexus, AMARE); test: Pre-emerge test, greenhouse herbicide activity screening; details: rated 14 days after application, 0 = no damage, 100 = complete death
Outline: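 Herbicidal damage is scored 0 (none) to 100 (complete plant death) two weeks after a simulated field spray. Rates span 15–1000 g ai/ha, delivered in acetone at 187 l/ha. For post-emergence treatments, plants have 2–3 leaves and the spray carries 0.25% v/v non-ionic surfactant.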

[2] = test system: barnyardgrass (Echinochloa crus-galli, ECHCG); test: as above; details: rated 14 days after application, 0 = no damage, 100 = complete death
Outline: (§1)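 Plants grown in 10 cm pots of sandy loam mix received acetone-dissolved compounds through a moving flat-fan nozzle. Doses ranged from 15 to 1000 g ai/ha. Pre-emerge pots were seeded one day earlier, post-emerge pots 8–21 days earlier. Fourteen days on, each pot was graded 0–100 for damage.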

[3] = test system: green foxtail (Setaria viridis, SETVI); test: as above; details: rated 14 days after application, 0 = no damage, 100 = complete death
Outline: as §1

[4] = test system: ivyleaf morningglory (Ipomoea hederacea, IPOHE); test: as above; details: rated 14 days after application, 0 = no damage, 100 = complete death
Outline: as §1

[5] = test system: johnsongrass (Sorghum halepense, SORHA); test: as above; details: rated 14 days after application, 0 = no damage, 100 = complete death
Outline: as §1

[6] = test system: lambsquarters (Chenopodium album, CHEAL); test: as above; details: rated 14 days after application, 0 = no damage, 100 = complete death
Outline: as §1

[7] = test system: large crabgrass (Digitaria sanguinalis, DIGSA); test: as above; details: rated 14 days after application, 0 = no damage, 100 = complete death
Outline: as §1

[8] = test system: sicklepod (Cassia obtusifolia, CASOB); test: as above; details: rated 14 days after application, 0 = no damage, 100 = complete death
Outline: as §1

[9] = test system: velvetleaf (Abutilon theophrasti, ABUTH); test: as above; details: rated 14 days after application, 0 = no damage, 100 = complete death
Outline: as §1

[10] = test system: field corn (Zea mays L., var. Dekalb 535, CORN); test: Pre-emerge test, crop safety; details: rated 14 days after application, 0 = no damage, 100 = complete death
Outline: (§2)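 Applied at 15–1000 g ai/ha from acetone in 187 l/ha spray volume. Post-emergence applications included 0.25% v/v non-ionic surfactant and reached plants sown 8–21 days before. Pre-emergence applications were incorporated by surface watering. Efficacy or crop damage was rated on a 0–100 scale after 14 days.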

[11] = test system: upland rice (Oryza sp., var. Tebonnet, RICE); test: Pre-emerge test, crop safety; details: rated 14 days after application, 0 = no damage, 100 = complete death
Outline: as §2

[12] = test system: barnyardgrass (Echinochloa crus-galli, ECHCG); test: Post-emerge test, greenhouse herbicide activity screening; details: post-emerge, 14 days after application, rating scale 0-100
Outline: (§3)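 Compounds in acetone were track-sprayed at 15-1000 g ai/ha (187 l/ha) on sandy loam pots: pre-emerge one day after seeding, post-emerge at 2-3 leaf stage with 0.25% v/v non-ionic surfactant. Phytotoxicity was rated 14 days later on a 0 (no damage) to 100 (complete death) scale.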

[13] = test system: green foxtail (Setaria viridis, SETVI); test: as above; details: post-emerge, 14 days after application, rating scale 0-100
Outline: as §3

[14] = test system: ivyleaf morningglory (Ipomoea hederacea, IPOHE); test: as above; details: post-emerge, 14 days after application, rating scale 0-100
Outline: as §3

[15] = test system: johnsongrass (Sorghum halepense, SORHA); test: as above; details: post-emerge, 14 days after application, rating scale 0-100
Outline: as §3

[16] = test system: lambsquarters (Chenopodium album, CHEAL); test: as above; details: post-emerge, 14 days after application, rating scale 0-100
Outline: as §3

[17] = test system: large crabgrass (Digitaria sanguinalis, DIGSA); test: as above; details: post-emerge, 14 days after application, rating scale 0-100
Outline: as §3

[18] = test system: redroot pigweed (Amaranthus retroflexus, AMARE); test: as above; details: post-emerge, 14 days after application, rating scale 0-100
Outline: as §3

[19] = test system: sicklepod (Cassia obtusifolia, CASOB); test: as above; details: post-emerge, 14 days after application, rating scale 0-100
Outline: as §3

[20] = test system: velvetleaf (Abutilon theophrasti, ABUTH); test: as above; details: post-emerge, 14 days after application, rating scale 0-100
Outline: as §3

[21] = test system: field corn (Zea mays L., var. Dekalb 535, CORN); test: Post-emerge test, crop safety; details: post-emerge, 14 days after application, rating scale 0-100
Outline: (§4)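 Each test used a mechanized track sprayer delivering 187 l/ha of acetone solution at 15–1000 g ai/ha. Post-emerge foliage at 2–3 leaves was treated with added 0.25% v/v non-ionic surfactant and bottom-watered only. Injury was assessed on day 14, where 100 means total kill.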

[22] = test system: upland rice (Oryza sp., var. Tebonnet, RICE); test: Post-emerge test, crop safety; details: post-emerge, 14 days after application, rating scale 0-100
Outline: as §4

Question: What does the source list for COc1c(Cl)cc(F)c(-n2c(=O)cc(C(F)(F)F)n(C)c2=O)c1NC(=O)C=Cc1ccc(Cl)cc1 [2-84]?
Answer: Pre-emerge Herbicidal Activity, phytotoxicity rating (0-100), AMARE ([1]; 63 g ai/ha): 80; Pre-emerge Herbicidal Activity, phytotoxicity rating (0-100), AMARE ([1]; 250 g ai/ha): 100; Pre-emerge Herbicidal Activity, phytotoxicity rating (0-100), ECHCG ([2]; 63 g ai/ha): 0; Pre-emerge Herbicidal Activity, phytotoxicity rating (0-100), ECHCG ([2]; 250 g ai/ha): 0; Pre-emerge Herbicidal Activity, phytotoxicity rating (0-100), SETVI ([3]; 63 g ai/ha): 0; Pre-emerge Herbicidal Activity, phytotoxicity rating (0-100), SETVI ([3]; 250 g ai/ha): 50; Pre-emerge Herbicidal Activity, phytotoxicity rating (0-100), IPOHE ([4]; 63 g ai/ha): 0; Pre-emerge Herbicidal Activity, phytotoxicity rating (0-100), IPOHE ([4]; 250 g ai/ha): 0; Pre-emerge Herbicidal Activity, phytotoxicity rating (0-100), SORHA ([5]; 63 g ai/ha): 0; Pre-emerge Herbicidal Activity, phytotoxicity rating (0-100), SORHA ([5]; 250 g ai/ha): 0; Pre-emerge Herbicidal Activity, phytotoxicity rating (0-100), CHEAL ([6]; 63 g ai/ha): 40; Pre-emerge Herbicidal Activity, phytotoxicity rating (0-100), CHEAL ([6]; 250 g ai/ha): 100; Pre-emerge Herbicidal Activity, phytotoxicity rating (0-100), DIGSA ([7]; 63 g ai/ha): 00; Pre-emerge Herbicidal Activity, phytotoxicity rating (0-100), DIGSA ([7]; 250 g ai/ha): 0; Pre-emerge Herbicidal Activity, phytotoxicity rating (0-100), CASOB ([8]; 63 g ai/ha): 0; Pre-emerge Herbicidal Activity, phytotoxicity rating (0-100), CASOB ([8]; 250 g ai/ha): 0; Pre-emerge Herbicidal Activity, phytotoxicity rating (0-100), ABUTH ([9]; 63 g ai/ha): 0; Pre-emerge Herbicidal Activity, phytotoxicity rating (0-100), ABUTH ([9]; 250 g ai/ha): 80; Pre-emerge phytotoxicity rating (0-100), crop damage, CORN ([10]; 63 g ai/ha): 0; Pre-emerge phytotoxicity rating (0-100), crop damage, CORN ([10]; 250 g ai/ha): 0; Pre-emerge phytotoxicity rating (0-100), crop damage, RICE ([11]; 63 g ai/ha): 0; Pre-emerge phytotoxicity rating (0-100), crop damage, RICE ([11]; 250 g ai/ha): 0; phytotoxicity rating ECHCG ([12]; 63 g ai/ha): 0; phytotoxicity rating ECHCG ([12]; 250 g ai/ha): 0; phytotoxicity rating SETVI ([13]; 63 g ai/ha): 30; phytotoxicity rating SETVI ([13]; 250 g ai/ha): 0; phytotoxicity rating IPOHE ([14]; 63 g ai/ha): 30; phytotoxicity rating IPOHE ([14]; 250 g ai/ha): 70; phytotoxicity rating SORHA ([15]; 63 g ai/ha): 0; phytotoxicity rating SORHA ([15]; 250 g ai/ha): 0; phytotoxicity rating CHEAL ([16]; 63 g ai/ha): 30; phytotoxicity rating CHEAL ([16]; 250 g ai/ha): 80; phytotoxicity rating DIGSA ([17]; 63 g ai/ha): 0; phytotoxicity rating DIGSA ([17]; 250 g ai/ha): 0; phytotoxicity rating AMARE ([18]; 63 g ai/ha): 80; phytotoxicity rating AMARE ([18]; 250 g ai/ha): 100; phytotoxicity rating CASOB ([19]; 63 g ai/ha): 20; phytotoxicity rating CASOB ([19]; 250 g ai/ha): 100; phytotoxicity rating ABUTH ([20]; 63 g ai/ha): 30; phytotoxicity rating ABUTH ([20]; 250 g ai/ha): 100; phytotoxicity rating CORN ([21]; 63 g ai/ha): 10; phytotoxicity rating CORN ([21]; 250 g ai/ha): 10; phytotoxicity rating RICE ([22]; 63 g ai/ha): 0; phytotoxicity rating RICE ([22]; 250 g ai/ha): 20
